Measurements as given in article PMC7318006, “Anidulafungin and Micafungin Concentrations in Cerebrospinal Fluid and in Cerebral Cortex” (Antimicrobial Agents and Chemotherapy, 2020).
Like-named read-outs stand apart in the source and are kept apart here. Starred links: 1 amine or outer side, 2 acyl side, 3 side chain; linkers in the order of their positions; H or OH if unused. Positions of bridges follow the written chain, without caps; N, C: chain ends. Non-standard residues stand in square brackets, D forms with d. Residues, ends and D or L forms follow the SMILES beside them. *: point of attachment. hTyr(3S-OH,4S-OH,3'-OSO3H) = N[C@H](C(=O)O)[C@H](O)[C@@H](O)c1ccc(O)c(OS(=O)(=O)O)c1; pTerphenylCO(4''-OnC5H11) = CCCCCOc1ccc(-c2ccc(-c3ccc(C(=O)*)cc3)cc2)cc1; Orn(4R-OH,5R-OH) = O=C([C@H](C[C@@H](O)[C@@H](O)N[*:3])N[*:1])[*:2]; hTyr(3S-OH,4S-OH) = N[C@H](C(=O)O)[C@H](O)[C@@H](O)c1ccc(O)cc1; Pro(3S-OH,4S-Me) = C[C@H]1CN[C@H](C(=O)O)[C@H]1O; X1 = CCCCCOc1ccc(-c2cc(-c3ccc(C(=O)*)cc3)no2)cc1; Gln(3R-OH) = NC(=O)C[C@@H](O)[C@H](N)C(=O)O; Hyp = O=C(O)[C@@H]1C[C@@H](O)CN1

Columns and labels:
Candida strains = conditions: pharmacodynamic target, not achieved in CSF of patients 2 and 5; cited from earlier work
Description: In some of the CSF and brain specimens, measured anidulafungin and micafungin concentrations were below the MICs reported for relevant Candida species (i.e., 0.008 to 4.0 μg/ml) ([6]). […] However, the relevance of in vitro MIC values for antifungal activity of echinocandins in CSF and in CNS remains to be clarified. In CSF, protein binding of anidulafungin and micafungin is unk ...

[1] = cumulative dose 200 mg; for Cmax (peak concentration) in CSF: steady state not reached
[2] = Concentration in arterial plasma of critically ill adults drawn simultaneously with CSF, HPLC-UV; assay type: in vivo, human; conditions: for AUC(0-t) / half-life / Cmax / Tmax: intravenous; for AUC(0-t): read-out: AUC0–24 in plasma; for half-life: read-out: t1/2 (half-life) in plasma (converted); for Cmax: read-out: Cmax (peak concentration) in plasma; for Tmax: read-out: Tmax (time to Cmax) in plasma
Description: CSF was taken during diagnostic lumbar puncture (LP) or via external ventricular drain (EVD) from critically ill adults treated with anidulafungin or micafungin. Simultaneously, we took 2-ml arterial blood samples. CSF and plasma were stored at –80°C.
Anidulafungin and micafungin concentrations were quantified by high-performance liquid chromatography and UV detection (HPLC-UV) as described previously ([5]). Noncompartmental pharmacokinetics was calculated with Kinetica 2000 (InnaPhase Corporation, Champs-sur-Marne, France). The area under the concentration-time curve from 0 to 24 h (AUC0–24) was computed with the log-linear method when the concentration in a trapezoid decreased or with the trapezoidal method when the concentration increased.

clinical = conditions: human, in vivo, iv
[3] = cited from earlier work
Description: In brain specimens, we cannot rule out minor agonal or postmortem changes of anidulafungin and micafungin concentrations, although anidulafungin and micafungin were stable in the brains of deceased patients for at least 96 h. Brain specimens consist of various compartments, e.g., different cells, extracellular matrix, and blood vessels. Anidulafungin and micafungin were not quantified on a cellular level or in different brain areas. Echinocandin extraction from human brain might yield slightly lower recovery than extraction from external standards. In rats, [^3H]caspofungin brain concentration ...

[4] = Stability in brain tissue at 4°C; assay type: in vitro ADME, human; conditions: brain tissue at 4°C (storage temperature of the corpses)
Description: In brain specimens, we cannot rule out minor agonal or postmortem changes of anidulafungin and micafungin concentrations, although anidulafungin and micafungin were stable in the brains of deceased patients for at least 96 h. Brain specimens consist of various compartments, e.g., different cells, extracellular matrix, and blood vessels. Anidulafungin and micafungin were not quantified on a cellular level or in different brain areas. Echinocandin extraction from human brain might yield slightly lower recovery than extraction from external standards. In rats, [^3H]caspofungin brain concentrations were ≤0.16 μg eq/g ([17]). In rabbits, micafungin brain concentrations were <0.19 μg/g, and those of anidulafungin were <4.0 μg/g ([18], [19]). In a biopsy sample of a brain abscess, a micafungin concentration of 0.26 μg/g was measured ([20]).

[5] = Concentration in autopsy samples of cerebral cortex of deceased patients, HPLC-UV; assay type: in vivo, human
Description: The cerebral cortex of deceased patients who had received anidulafungin or micafungin within their last 30 days of life was sampled during autopsy, which is routinely performed for quality assurance in Austrian hospitals. Anidulafungin and micafungin were extracted from 0.2 g of tissue by addition of 250 μl of acetonitrile and 250 μl of methanol (Sigma-Aldrich, Vienna, Austria), homogenization with a Precellys homogenizer (Bertin Instruments, Montigny-le-Bretonneux, France) at 4,500 rpm (twice for 25 s, 2-s break), and centrifugation for 5 min at 8°C and 4,665 × g. For calibration, we used porcine brain samples spiked with anidulafungin or micafungin and homogenized and proceeded in the same manner. Both echinocandins were quantified by HPLC-UV at 306 nm ([5]). The lower limit of quantification was 0.05 μg/g for anidulafungin and 0.10 μg/g for micafungin. The extraction recovery from brain was ∼40% and ∼60% for anidulafungin and micafungin, respectively.

[6] = cited from earlier work; remark: listed apart in the source
[7] = patient 2, external ventricular drainage, treatment day 1, noncompartmental
[8] = human, plasma, patient 2, cumulative dose 200 mg, treatment day 1, noncompartmental
[9] = patient 5, external ventricular drainage, treatment day 2, noncompartmental
[10] = human, plasma, patient 5, cumulative dose 200 mg, treatment day 2, noncompartmental

In the case of `CCCCCOc1ccc(-c2ccc(-c3ccc(C(=O)N[C@H]4C[C@@H](O)[C@@H](O)NC(=O)[C@@H]5[C@@H](O)[C@@H](C)CN5C(=O)[C@H]([C@@H](C)O)NC(=O)[C@H]([C@H](O)[C@@H](O)c5ccc(O)cc5)NC(=O)[C@@H]5C[C@@H](O)CN5C(=O)[C@H]([C@@H](C)O)NC4=O)cc3)cc2)cc1` [anidulafungin] ({pTerphenylCO(4''-OnC5H11)}-[Orn(4R-OH,5R-OH)]T[Hyp][hTyr(3S-OH,4S-OH)]T[Pro(3S-OH,4S-Me)]; lactam 1-C), the “Target AUC0–24/MIC ratio suggested” value (Candida strains) is listed as 2,782, the “Tmax (time to Cmax) in CSF” value ([1]; patient 2, external ventricular drainage, treatment day 1) is listed as 1 h and the “AUC0–24 in CSF” value [1, 7] is listed as 2.09 µg·h/mL. The “t1/2 (half-life) in CSF” value [1, 7] was 7.90 h, the “Cmax (peak concentration) in CSF” value ([1]; patient 2, external ventricular drainage, treatment day 1, sampling before and 1, 4, 8, 12, 18, 24 h after start of infusion) was 0.66 µg/mL and the “Cmin (trough concentration) in CSF” value ([1]; patient 2, external ventricular drainage, treatment day 1, steady state not reached) was 0.03 µg/mL. The AUC(0-t) [2, 8] was 29.4 µg·h/mL, the half-life [2, 8] was 14.7 h and the Cmax ([2]; human, plasma, patient 2, cumulative dose 200 mg, treatment day 1, sampling before and 1, 4, 8, 12, 18, 24 h after start of infusion, steady state not reached) was 2.72 µg/mL. For the same compound, the Tmax ([2]; human, plasma, patient 2, cumulative dose 200 mg, treatment day 1) was 1 h, the level at 0.5 h ([2]; human, plasma, iv, 2500 mg, patient 3, arterial blood simultaneous with lumbar puncture, cumulative dose 2,500 mg, treatment day 24, 0.5 h from start of infusion, steady state, read-out: Plasma concn) was 5.07 µg/mL and the level at 3 h ([2]; human, plasma, iv, patient 1, arterial blood simultaneous with lumbar puncture, cumulative dose 300 mg, treatment day 3, 3.0 h from start of infusion, steady state not reached, read-out: Plasma concn) was 3.83 µg/mL. For the same compound, the “Cmin (trough concentration) in plasma” value ([2]; patient 2, cumulative dose 200 mg, treatment day 1, steady state not reached) was 0.77 µg/mL, the Kp (clinical; 200 mg) was 0.07 and the Kp at 3 h (clinical; 300 mg) was 0.01. The Kp at 0.5 h (clinical; 2500 mg) was less than 0.002, the Brain concentrations ([3]; rabbits) was less than 4.0 µg/g and the “Time stable in brain tissue” value [4] was “at least 96 h”. For the same compound, the tissue level at time at 29 h ([5]; human, cerebral cortex, 1200 mg, patient 10, cumulative dose 1,200 mg, treatment 11 days, 29 h between last administration and death, 21 h between death and sampling, LLOQ 0.05 μg/g, read-out: Concn in cerebral cortex (autopsy)) was 1580 ng/g, the tissue level at time at 12 h ([5]; human, cerebral cortex, 1500 mg, patient 9, cumulative dose 1,500 mg, treatment 14 days, 12 h between last administration and death, 15 h between death and sampling, LLOQ 0.05 μg/g, read-out: Concn in cerebral cortex (autopsy)) was 2340 ng/g and the tissue level at time at 313 h ([5]; human, cerebral cortex, 1800 mg, patient 8, cumulative dose 1,800 mg, treatment 17 days, 313 h between last administration and death, 25 h between death and sampling, LLOQ 0.05 μg/g, read-out: Concn in cerebral cortex (autopsy)) was 280 ng/g. The tissue level at time at 32 h ([5]; human, cerebral cortex, patient 7, cumulative dose 700 mg, treatment 6 days, 32 h between last administration and death, 14 h between death and sampling, LLOQ 0.05 μg/g, read-out: Concn in cerebral cortex (autopsy)) was 210 ng/g.

In the case of `CCCCCOc1ccc(-c2cc(-c3ccc(C(=O)N[C@H]4C[C@@H](O)[C@@H](O)NC(=O)[C@@H]5[C@@H](O)[C@@H](C)CN5C(=O)[C@H]([C@H](O)CC(N)=O)NC(=O)[C@H]([C@H](O)[C@@H](O)c5ccc(O)c(OS(=O)(=O)O)c5)NC(=O)[C@@H]5C[C@@H](O)CN5C(=O)[C@H]([C@@H](C)O)NC4=O)cc3)no2)cc1` [micafungin] (X1-[Orn(4R-OH,5R-OH)]T[Hyp][hTyr(3S-OH,4S-OH,3'-OSO3H)][Gln(3R-OH)][Pro(3S-OH,4S-Me)]; lactam 1-C), the CSF concentration ([6]; cerebral aspergillosis, 2-fold maximum dose, 300 mg/day) is given as less than 0.02 µg/mL, the “Target AUC0–24/MIC ratio suggested” value (Candida strains) is given as 5,299 and the “Tmax (time to Cmax) in CSF” value ([1]; patient 5, external ventricular drainage, treatment day 2) is given as 4 h. For the same compound, the “Cmin (trough concentration) in CSF” value ([1]; patient 5, external ventricular drainage, treatment day 2, LLOQ 0.01 μg/ml) was less than 0.01 µg/mL, the “AUC0–24 in CSF” value [1, 9] was 2.01 µg·h/mL and the “t1/2 (half-life) in CSF” value [1, 9] was 13.80 h. For the same compound, the “Cmax (peak concentration) in CSF” value ([1]; patient 5, external ventricular drainage, treatment day 2, sampling before and 1, 4, 8, 12, 18, 24 h after start of infusion) was 0.16 µg/mL, the AUC(0-t) [2, 10] was 113 µg·h/mL and the half-life [2, 10] was 12.9 h. It also gave a Cmax ([2]; human, plasma, patient 5, cumulative dose 200 mg, treatment day 2, sampling before and 1, 4, 8, 12, 18, 24 h after start of infusion, steady state not reached) of 8.7 µg/mL, a Tmax ([2]; human, plasma, patient 5, cumulative dose 200 mg, treatment day 2) of 1 h and a level at 2.5 h ([2]; human, plasma, iv, 1300 mg, patient 6, arterial blood simultaneous with lumbar puncture, cumulative dose 1,300 mg, treatment day 13, 2.5 h from start of infusion, steady state, read-out: Plasma concn) of 3.51 µg/mL. The level at 16 h ([2]; human, plasma, iv, patient 4, arterial blood simultaneous with lumbar puncture, cumulative dose 200 mg, treatment day 2, 16.0 h from start of infusion, steady state not reached, read-out: Plasma concn) was 1.21 µg/mL, the “Cmin (trough concentration) in plasma” value ([2]; patient 5, cumulative dose 200 mg, treatment day 2, steady state not reached) was 2.16 µg/mL and the Kp (clinical; 200 mg) was 0.02. For the same compound, the Kp at 16 h (clinical; 200 mg) was 0.08, the level at 16 h (clinical; 200 mg) was 0.09 µg/mL and the Kp at 2.5 h (clinical; 1300 mg) was 0.03. For the same compound, the “Concentration in biopsy sample of a brain abscess” value [3] was 0.26 µg/g, the Brain concentrations ([3]; rabbits) was less than 0.19 µg/g and the “Time stable in brain tissue” value [4] was “at least 96 h”. The “Time after treatment at which the drug was still measurable in cerebral cortex” value ([5]; autopsy samples of deceased patients) was 10 days, the tissue level at time at 712 h ([5]; human, cerebral cortex, 1100 mg, patient 11, cumulative dose 1,100 mg, treatment 19 days, 712 h between last administration and death, 58 h between death and sampling, LLOQ 0.10 μg/g, read-out: Concn in cerebral cortex (autopsy)) was less than 100 ng/g and the tissue level at time at 235 h ([5]; human, cerebral cortex, 4000 mg, patient 16, cumulative dose 4,000 mg, treatment 39 days, 235 h between last administration and death, 29 h between death and sampling, LLOQ 0.10 μg/g, read-out: Concn in cerebral cortex (autopsy)) was 190 ng/g. For the same compound, the tissue level at time at 111 h ([5]; human, cerebral cortex, intravenous, 1800 mg, patient 13, cumulative dose 1,800 mg, treatment 18 days, 111 h between last administration and death, 38 h between death and sampling, LLOQ 0.10 μg/g, read-out: Concn in cerebral cortex (autopsy)) was 180 ng/g, the tissue level at time at 230 h ([5]; human, cerebral cortex, intravenous, 5300 mg, patient 12, cumulative dose 5,300 mg, treatment 28 days, 230 h between last administration and death, 85 h between death and sampling, LLOQ 0.10 μg/g, read-out: Concn in cerebral cortex (autopsy)) was 1520 ng/g and the tissue level at time at 99 h ([5]; human, cerebral cortex, patient 14, cumulative dose 500 mg, treatment 4 days, 25 h between last administration and death, 74 h between death and sampling, LLOQ 0.10 μg/g, read-out: Concn in cerebral cortex (autopsy)) was 2880 ng/g. The tissue level at time at 324 h ([5]; human, cerebral cortex, patient 15, cumulative dose 300 mg, treatment 3 days, 324 h between last administration and death, 80 h between death and sampling, LLOQ 0.10 μg/g, read-out: Concn in cerebral cortex (autopsy)) was less than 100 ng/g.

In the case of Caspofungin, the “Detection in CSF” value ([6]; human, in vivo) is listed as “undetectable” and the “Detection in CSF” value ([6]; in 9 of 11 CSF samples from children with hematological malignancies) is listed as “undetectable”.

For [^3H]caspofungin, the Brain concentrations ([3]; rats) is given as no more than 0.16 μg eq/g.
